≈ marks a conversion by molar mass, not a printed value.
Key:
[1] = system: Enterococcus faecium; assay: Compound was evaluated for growth inhibition against Streptococcus faecium ATCC 8043; type: functional, organism-based
[2] = system: Mus musculus; assay: (§1) Antitumor activity against L1210 leukemia in mice after subcutaneous administration (Q2Dx5) at a dose 12 mg/kg out of 10 mice tested; type: functional
[3] = system: Mus musculus; assay: (§2) Antitumor activity against L1210 leukemia in mice after subcutaneous administration (Q2Dx5) at a dose 18 mg/kg out of 10 mice tested; type: functional
[4] = system: Mus musculus; assay: (§3) Antitumor activity against L1210 leukemia in mice after subcutaneous administration (Q2Dx5) at a dose 24 mg/kg out of 10 mice tested; type: functional
[5] = system: Mus musculus; assay: (§4) Antitumor activity against L1210 leukemia in mice after subcutaneous administration (Q2Dx5) at a dose 32 mg/kg out of 10 mice tested; type: functional
[6] = system: Mus musculus; assay: (§5) Antitumor activity against L1210 leukemia in mice after subcutaneous administration (Q2Dx5) at a dose 9 mg/kg out of 10 mice tested; type: functional
[7] = system: Mus musculus; assay: Compound was evaluated for antitumor activity against L1210 leukemia in mice after subcutaneous administration (Q2Dx5) at a dose 18 mg/kg; type: functional; conditions: for ILS at 18 mg/kg: L1210, sc
[8] = system: Mus musculus; assay: Compound was evaluated for antitumor activity against L1210 leukemia in mice after subcutaneous administration (Q2Dx5) at a dose 12 mg/kg; type: functional; conditions: for ILS at 12 mg/kg: L1210, sc
[9] = system: Mus musculus; assay: Compound was evaluated for antitumor activity against L1210 leukemia in mice after subcutaneous administration (Q2Dx5) at a dose 9 mg/kg; type: functional; conditions: for ILS at 9 mg/kg: Mus musculus, L1210, sc
[10] = system: Mus musculus; assay: Compound was evaluated for antitumor activity against L1210 leukemia in mice after subcutaneous administration (Q2Dx5) at 24 mg/kg; type: functional
[11] = system: Mus musculus; assay: Compound was evaluated for antitumor activity against L1210 leukemia in mice after subcutaneous administration (Q2Dx5) at 32 mg/kg; type: functional
[12] = system: Mus musculus; assay: Compound was evaluated for antitumor activity against L1210 leukemia in mice after subcutaneous administration (Q2Dx5) at a dose 24 mg/kg; type: functional; conditions: for ILS at 24 mg/kg: L1210, sc
[13] = system: Mus musculus; assay: Compound was evaluated for antitumor activity against L1210 leukemia in mice after subcutaneous administration (Q2Dx5) at a dose 32 mg/kg; type: functional; conditions: L1210, sc
[14] = system: Mus musculus; assay: as §1; type: ADME, organism-based; design: dose 12 mg/kg, route subcutaneous; conditions: in vivo, sc
[15] = system: Mus musculus; assay: as §2; type: ADME, organism-based; design: dose 18 mg/kg, route subcutaneous; conditions: in vivo, sc
[16] = system: Mus musculus; assay: as §3; type: ADME, organism-based; design: dose 24 mg/kg, route subcutaneous; conditions: in vivo, sc
[17] = system: Mus musculus; assay: as §4; type: ADME, organism-based; design: dose 32 mg/kg, route subcutaneous; conditions: in vivo, sc
[18] = system: Mus musculus; assay: Compound was evaluated for antitumor activity against L1210 leukemia in mice after subcutaneous administration (Q2Dx5) at 18 mg/kg; type: functional
[19] = system: Mus musculus; assay: as §5; type: ADME, organism-based; design: dose 9 mg/kg, route subcutaneous; conditions: in vivo, sc
[20] = biological target: T1, Dihydrofolate reductase (Mus musculus, UniProt P00375); assay: Compound was evaluated for binding affinity against Dihydrofolate reductase of L1210 cells; type: cell-based
T1 sequence (P00375 whole entry): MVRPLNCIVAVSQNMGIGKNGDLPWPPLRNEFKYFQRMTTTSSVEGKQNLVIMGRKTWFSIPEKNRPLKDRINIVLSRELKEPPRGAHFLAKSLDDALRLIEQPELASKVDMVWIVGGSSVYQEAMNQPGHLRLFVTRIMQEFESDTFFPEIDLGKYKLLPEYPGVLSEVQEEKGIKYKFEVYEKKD

[21] = system: L1210; assay: (§6) Compound was evaluated for transport properties against L1210 cells for influx; type: functional, Mus musculus
[22] = system: L1210; assay: Compound was evaluated for growth inhibition and minimal inhibitory concentration was reported against L1210 cells.; type: functional, Mus musculus
[23] = system: L1210; assay: as §6; type: functional, cell-based, Mus musculus
[24] = system: L1210; assay: Compound was evaluated for transport properties against L1210 cells for efflux; type: functional, Mus musculus
[25] = system: Lacticaseibacillus casei; assay: Compound was evaluated for growth inhibition against Lactobacillus casei ATCC 7469; type: functional, organism-based
[26] = system: Mus musculus; assay: (§7) Antitumor activity against L1210 leukemia in mice after subcutaneous administration (Q2Dx5) at a dose 12 mg/kg out of 9 mice tested; type: functional
[27] = system: Mus musculus; assay: Antitumor activity against L1210 leukemia in mice after subcutaneous administration (Q2Dx5) at a dose 18/mg/kg out of 9 mice tested; type: functional
[28] = system: Mus musculus; assay: (§8) Antitumor activity against L1210 leukemia in mice after subcutaneous administration (Q2Dx5) at a dose 24 mg/kg out of 3 mice tested; type: functional
[29] = system: Mus musculus; assay: (§9) Antitumor activity against L1210 leukemia in mice after subcutaneous administration (Q2Dx5) at a dose 9 mg/kg out of 6 mice tested; type: functional
[30] = system: Mus musculus; assay: as §7; type: ADME, organism-based; design: dose 12 mg/kg, route subcutaneous; conditions: in vivo, sc
[31] = system: Mus musculus; assay: Antitumor activity against L1210 leukemia in mice after subcutaneous administration (Q2Dx5) at a dose 18 mg/kg out of 9 mice tested; type: ADME, organism-based; design: dose 18 mg/kg, route subcutaneous; conditions: in vivo, sc
[32] = system: Mus musculus; assay: as §8; type: ADME, organism-based; design: dose 24 mg/kg, route subcutaneous; conditions: in vivo, sc
[33] = system: Mus musculus; assay: as §9; type: ADME, organism-based; design: dose 9 mg/kg, route subcutaneous; conditions: in vivo, sc
[34] = system: Mus musculus; assay: (§10) Antitumor activity against L1210 leukemia in mice after subcutaneous administration (Q2Dx5) at a dose 12 mg/kg out of 3 mice tested; type: functional
[35] = system: Mus musculus; assay: Antitumor activity against L1210 leukemia in mice after subcutaneous administration (Q2Dx5) at a dose 17 mg/kg out of 9 mice tested; type: functional
[36] = system: Mus musculus; assay: (§11) Antitumor activity against L1210 leukemia in mice after subcutaneous administration (Q2Dx5) at a dose 32 mg/kg out of 6 mice tested; type: functional
[37] = system: Mus musculus; assay: (§12) Antitumor activity against L1210 leukemia in mice after subcutaneous administration (Q2Dx5) at a dose 24 mg/kg out of 9 mice tested; type: functional
[38] = system: Mus musculus; assay: as §10; type: ADME, organism-based; design: dose 12 mg/kg, route subcutaneous; conditions: in vivo, sc
[39] = system: Mus musculus; assay: as §12; type: ADME, organism-based; design: dose 24 mg/kg, route subcutaneous; conditions: in vivo, sc
[40] = system: Mus musculus; assay: as §11; type: ADME, organism-based; design: dose 32 mg/kg, route subcutaneous; conditions: in vivo, sc
[41] = Enterococcus faecium, ATCC 8043, read-out: IC50

CC[C@@H](CC1=Nc2c(N)nc(N)nc2NC1)c1ccc(C(=O)N[C@@H](CCC(=O)O)C(=O)O)cc1 (stereo in doubt; form 1)
IC50 [1]: 1.1 ng/mL (≈ 2.34 nM)

CC[C@H](CC1CNc2nc(N)nc(N)c2N1)c1ccc(C(=O)N[C@@H](CCC(=O)O)C(=O)O)cc1 (mixture of isomers)
IC50 [1, 41]: 2.5 ng/mL

CCC(Cc1cnc2nc(N)nc(N)c2n1)c1ccc(C(=O)NC(CCC(=O)O)C(=O)O)cc1 (racemic)
30 days survivors [2]: 0 | 30 days survivors [3]: 0 | 30 days survivors [4]: 2 | 30 days survivors [5]: 0 | 30 days survivors [6]: 0 | ILS at 18 mg/kg ([7]; Mus musculus): 193% | MST [8]: 16.7 days | ILS at 12 mg/kg [8]: 153% | MST [9]: 15.5 days | ILS at 9 mg/kg [9]: 135% | MST [10]: 20.3 days | MST [11]: 16 days | ILS at 24 mg/kg [12]: 207% | ILS at 32 mg/kg [13]: 67% | Toxic deaths [14]: 0 | Toxic deaths [15]: 0 | Toxic deaths [16]: 2 | Toxic deaths [17]: 10 | MST [18]: 19.3 days | Toxic deaths [19]: 0

CCC(CC1=Nc2c(N)nc(N)nc2NC1)c1ccc(C(=O)NC(CCC(=O)O)C(=O)O)cc1 (racemic)
IC50 [1, 41]: 1.1 ng/mL (≈ 2.34 nM)

C[C@H](Cc1cnc2nc(N)nc(N)c2n1)c1ccc(C(=O)N[C@@H](CCC(=O)O)C(=O)O)cc1 (stereo in doubt; d-L-15a)
Ki [20]: 0.00424 nM | k [21]: 0.258 min⁻¹ | MIC50 ([22]; Mus musculus): 0.68 nM (≈ 0.308 ng/mL) | Ki [23]: 1910 nM

CC[C@@H](CC1=Nc2c(N)nc(N)nc2NC1)c1ccc(C(=O)N[C@@H](CCC(=O)O)C(=O)O)cc1 (stereo in doubt; form 2)
IC50 [1, 41]: 1.1 ng/mL (≈ 2.34 nM)

CCC(CC1CNc2nc(N)nc(N)c2N1)c1ccc(C(=O)NC(CCC(=O)O)C(=O)O)cc1 (racemic)
IC50 [1, 41]: 2.6 ng/mL (≈ 5.51 nM)

CN(Cc1cnc2nc(N)nc(N)c2n1)c1ccc(C(=O)N[C@@H](CCC(=O)O)C(=O)O)cc1 [METHOTREXATE]
k [24]: 0.213 min⁻¹ | IC50 [25]: 0.013 ng/mL (≈ 0.0286 nM) | MIC50 ([22]; Mus musculus): 2.48 nM (≈ 1.13 ng/mL) | Ki [23]: 5610 nM | 30 days survivors [2]: 0 | 30 days survivors [3]: 0 | 30 days survivors [4]: 0 | 30 days survivors [6]: 0 | ILS [7]: 119% | MST [7]: 14.5 days | MST [8]: 16.3 days | ILS [9]: 137% | MST [9]: 15.7 days | MST [12]: 9.6 days | ILS at 24 mg/kg [12]: 46% | Toxic deaths [14]: 1 | Toxic deaths [15]: 6 | Toxic deaths [16]: 10 | Toxic deaths [19]: 0 | IC50 [1]: 0.4 ng/mL (≈ 0.88 nM)

CC[C@H](CC1CNc2nc(N)nc(N)c2N1)c1ccc(C(=O)N[C@@H](CCC(=O)O)C(=O)O)cc1 (stereo in doubt)
IC50 [1]: 3.1 ng/mL (≈ 6.57 nM)

C[C@H](Cc1cnc2nc(N)nc(N)c2n1)c1ccc(C(=O)N[C@@H](CCC(=O)O)C(=O)O)cc1 (stereo in doubt; l-L-15a)
Ki [20]: 0.00317 nM | k [21]: 0.267 min⁻¹ | MIC50 [22]: 1.18 nM (≈ 0.535 ng/mL) | Ki [23]: 1900 nM

CC[C@H](Cc1cnc2nc(N)nc(N)c2n1)c1ccc(C(=O)N[C@@H](CCC(=O)O)C(=O)O)cc1
k [24]: 0.253 min⁻¹ | MIC50 ([22]; Mus musculus): 0.43 nM (≈ 0.201 ng/mL) | Ki [23]: 1580 nM | 30 days survivors [26]: 0 | 30 days survivors [27]: 1 | 30 days survivors [28]: 0 | MST [7]: 17.5 days | ILS at 18 mg/kg [7]: 165% | 30 days survivors [29]: 0 | MST [8]: 19.8 days | ILS at 12 mg/kg [8]: 199% | MST [9]: 18.3 days | ILS at 9 mg/kg [9]: 177% | MST [12]: 10 days | ILS at 24 mg/kg [12]: 55% | Toxic deaths [30]: 3 | Toxic deaths [31]: 5 | Toxic deaths [32]: 3 | Toxic deaths [33]: 0

CC[C@@H](Cc1cnc2nc(N)nc(N)c2n1)c1ccc(C(=O)N[C@@H](CCC(=O)O)C(=O)O)cc1
k [24]: 0.249 min⁻¹ | MIC50 ([22]; Mus musculus): 1.52 nM (≈ 0.711 ng/mL) | Ki [23]: 1620 nM | 30 days survivors [34]: 0 | 30 days survivors [35]: 0 | 30 days survivors [36]: 0 | MST [7]: 17.3 days | ILS at 18 mg/kg [7]: 187% | ILS at 12 mg/kg [8]: 138% | MST [9]: 15.7 days | MST [11]: 18.8 days | 30 days survivors [37]: 0 | ILS at 24 mg/kg ([37]; L1210, sc): 163% | ILS at 32 mg/kg [13]: 181% | Toxic deaths [38]: 0 | Toxic deaths [31]: 0 | Toxic deaths [39]: 0 | Toxic deaths [40]: 1

Reference: ChEMBL document CHEMBL1123545 (J Med Chem, 1986)
